Test results: ChEMBL document CHEMBL1201862, “PubChem BioAssay data set” (2004)
The source made the active and inactive calls.

Legend:
[1] = biological target: T1, DNA repair protein RAD52 homolog (Homo sapiens, UniProt P43351); format: functional, biochemical
T1 sequence (P43351 whole entry): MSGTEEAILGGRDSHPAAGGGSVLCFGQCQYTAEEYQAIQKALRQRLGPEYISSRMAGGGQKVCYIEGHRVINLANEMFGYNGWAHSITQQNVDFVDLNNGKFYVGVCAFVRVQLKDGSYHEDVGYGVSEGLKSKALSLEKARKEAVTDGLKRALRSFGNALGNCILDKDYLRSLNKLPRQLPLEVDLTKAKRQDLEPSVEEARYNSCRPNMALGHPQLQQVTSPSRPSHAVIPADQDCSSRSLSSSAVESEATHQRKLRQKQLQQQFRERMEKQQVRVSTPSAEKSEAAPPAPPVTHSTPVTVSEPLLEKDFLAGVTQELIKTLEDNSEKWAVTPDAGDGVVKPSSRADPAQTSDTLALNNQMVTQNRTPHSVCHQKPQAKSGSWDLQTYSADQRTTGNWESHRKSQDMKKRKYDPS

[2] = biological target: T2, DNA repair and recombination protein RAD54-like (Homo sapiens, UniProt Q92698); assay: inhibitors of human RAD54 branch migration, confirmation, biochemical, fluorescence, cherry-picked samples, dose series (AID 651657); format: functional
T2 sequence (Q92698 whole entry): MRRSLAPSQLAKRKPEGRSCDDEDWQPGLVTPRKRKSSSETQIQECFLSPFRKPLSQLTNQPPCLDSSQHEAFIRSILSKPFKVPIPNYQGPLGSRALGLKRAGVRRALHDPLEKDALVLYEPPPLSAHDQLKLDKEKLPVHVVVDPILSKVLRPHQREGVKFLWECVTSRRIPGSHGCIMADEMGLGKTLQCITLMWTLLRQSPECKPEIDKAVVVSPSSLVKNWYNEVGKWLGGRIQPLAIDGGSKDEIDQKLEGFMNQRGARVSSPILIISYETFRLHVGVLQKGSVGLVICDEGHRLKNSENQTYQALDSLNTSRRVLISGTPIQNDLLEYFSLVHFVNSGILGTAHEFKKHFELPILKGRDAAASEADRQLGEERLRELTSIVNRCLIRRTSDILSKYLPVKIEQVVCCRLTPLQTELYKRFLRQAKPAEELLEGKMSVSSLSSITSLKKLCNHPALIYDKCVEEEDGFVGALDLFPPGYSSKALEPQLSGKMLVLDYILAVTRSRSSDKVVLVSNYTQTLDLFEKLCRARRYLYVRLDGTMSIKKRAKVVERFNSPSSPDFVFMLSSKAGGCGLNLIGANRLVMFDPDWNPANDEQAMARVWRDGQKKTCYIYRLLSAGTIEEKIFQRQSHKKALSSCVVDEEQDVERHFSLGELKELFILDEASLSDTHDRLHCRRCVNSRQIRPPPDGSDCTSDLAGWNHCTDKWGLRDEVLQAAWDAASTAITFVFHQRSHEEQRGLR

[3] = biological target: T3, Calpain-2 catalytic subunit (Sus scrofa, UniProt P43367); assay: pig calpain II inhibitor potency, dose response, biochemical, fluorogenic peptide substrate (AID 1420); format: functional
T3 sequence (P43367 whole entry): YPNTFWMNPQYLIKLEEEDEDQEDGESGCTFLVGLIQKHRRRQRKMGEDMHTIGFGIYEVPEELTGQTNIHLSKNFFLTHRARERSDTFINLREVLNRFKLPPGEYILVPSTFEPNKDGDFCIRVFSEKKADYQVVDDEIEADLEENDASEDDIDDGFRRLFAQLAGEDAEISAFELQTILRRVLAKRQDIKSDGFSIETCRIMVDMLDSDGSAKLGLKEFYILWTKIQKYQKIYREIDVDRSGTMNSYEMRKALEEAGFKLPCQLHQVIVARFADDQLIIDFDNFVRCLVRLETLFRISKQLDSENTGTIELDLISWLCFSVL

[4] = tested on: Streptococcus sp. 'group A'; assay: growth inhibition of control SK(-) GAS strain, dose response, counter-screen for streptokinase expression inhibitor project, luminescence, kanamycin, BacTiterGlo, confirmation (AID 1900); format: functional, organism-based
Streptococcus = assay: Group A Streptococcus viability loss, dose response, counter-screen for streptokinase expression inhibitor project, luminescence, BacTiterGlo (AID 1915); format: functional, organism-based;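 note: potency for reduction of bacterial viability or growth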
[5] = cytotoxicity toward NIH3T3 fibroblasts, dose response, counter-screen, cell-based, ATP luminescence, mouse fibroblasts (AID 2010); format: functional;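 note: cells exposed to compound for about 90 hours before reading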
[6] = inhibitors of intracellular T. cruzi replication, confirmation, NIH3T3 host cells, beta-gal luminescence (AID 2044); format: functional, cell-based;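 note: intracellular parasites grown in NIH/3T3 mouse fibroblasts as host cells; luminescent beta-galactosidase reporter signal from transgenic T. cruzi replicating inside host cells; inhibitors lower the luminescence signal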
[7] = AlphaScreen signal interference compounds, dose response, artefact control for ARNT-TACC3 interaction inhibitor project, biochemical, luminescence, cherry-pick (AID 651705); format: functional;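 note: AlphaScreen bead proximity signal that flags compounds interfering with the detection technology; potency reflects signal decrease which marks the compound as an assay artifact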
Streptokinase A = biological target: T4, Streptokinase A (Streptococcus pyogenes serotype M1, UniProt P10520); assay: S. pyogenes streptokinase expression inhibitors, potency, dose response, plasminogen activation absorbance, OD405 (AID 1914); format: functional, Streptococcus pyogenes M1 GAS;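 note: secreted streptokinase activity via plasminogen activation per viability signal from cell pellet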
T4 sequence (P10520 whole entry): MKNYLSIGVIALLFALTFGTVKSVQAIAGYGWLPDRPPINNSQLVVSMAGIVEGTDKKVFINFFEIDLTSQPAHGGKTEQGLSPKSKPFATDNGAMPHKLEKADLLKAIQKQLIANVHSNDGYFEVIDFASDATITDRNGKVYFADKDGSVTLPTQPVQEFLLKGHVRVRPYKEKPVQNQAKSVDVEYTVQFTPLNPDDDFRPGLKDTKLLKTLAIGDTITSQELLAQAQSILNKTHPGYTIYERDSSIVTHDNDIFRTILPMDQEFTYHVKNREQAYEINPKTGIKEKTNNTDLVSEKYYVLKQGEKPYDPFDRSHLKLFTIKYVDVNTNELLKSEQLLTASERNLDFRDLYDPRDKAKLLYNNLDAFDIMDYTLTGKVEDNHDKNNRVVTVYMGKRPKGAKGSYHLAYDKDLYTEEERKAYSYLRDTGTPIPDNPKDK

[8] = biological target: T5, Mannose-6-phosphate isomerase (Homo sapiens, UniProt P34949); assay: human PMI inhibitors, high substrate, primary screen, biochemical, fluorescence intensity, high mannose 6-phosphate (AID 1220)
T5 sequence (P34949 whole entry): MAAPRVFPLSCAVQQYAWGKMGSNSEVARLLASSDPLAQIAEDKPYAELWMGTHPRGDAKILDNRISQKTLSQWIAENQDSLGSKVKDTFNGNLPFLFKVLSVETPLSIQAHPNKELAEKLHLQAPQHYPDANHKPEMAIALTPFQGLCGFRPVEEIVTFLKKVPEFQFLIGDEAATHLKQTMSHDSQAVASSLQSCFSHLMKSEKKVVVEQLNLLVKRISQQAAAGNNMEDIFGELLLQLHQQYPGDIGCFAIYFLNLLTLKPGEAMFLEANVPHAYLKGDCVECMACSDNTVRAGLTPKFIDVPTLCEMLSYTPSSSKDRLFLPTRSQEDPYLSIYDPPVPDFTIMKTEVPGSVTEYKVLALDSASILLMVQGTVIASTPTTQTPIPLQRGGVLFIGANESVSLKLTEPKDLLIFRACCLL

[9] = biological target: Glyceraldehyde-3-phosphate dehydrogenase (Homo sapiens, UniProt P04406)
Sequence of Glyceraldehyde-3-phosphate dehydrogenase (P04406 whole entry): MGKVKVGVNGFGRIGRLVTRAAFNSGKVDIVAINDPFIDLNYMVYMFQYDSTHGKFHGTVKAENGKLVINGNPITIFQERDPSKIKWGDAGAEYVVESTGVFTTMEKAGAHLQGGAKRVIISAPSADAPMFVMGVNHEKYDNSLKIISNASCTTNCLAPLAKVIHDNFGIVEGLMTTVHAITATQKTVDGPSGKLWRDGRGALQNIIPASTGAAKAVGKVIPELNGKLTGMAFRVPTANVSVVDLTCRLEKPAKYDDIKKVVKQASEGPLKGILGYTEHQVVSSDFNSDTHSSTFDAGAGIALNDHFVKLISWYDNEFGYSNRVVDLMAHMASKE

[10] = growth suppression of PTEN-null colon cells, dose response, cell-based, HCT116 PTEN knockout (AID 1047); format: functional;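 note: HCT116 colon tumor cells with PTEN knocked out; cells exposed to compound for 60 hours before readout; potency for loss of cell viability measured by luminescence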
[11] = Luminescence Cell-Based Dose Confirmation HTS to Identify Activators of 5'UTR Stem-Loop Driven Alpha-Synuclein mRNA Translation in H4 Neuroglioblastoma Cells. [Related pubchem assays: 1829 (Project Summary), 1814 (Primary HTS)]; format: functional
[12] = Luminescence Cell-Based Dose Response HTS to Identify Activators of Luciferase Translation or Activity in H4 […] Cells. [Related pubchem assays: 1829 (Project Summary), 1814 (Primary HTS)]; format: functional
H4 = assay: Luminescence Cell-Based Dose Response HTS to Identify Activators of 5'UTR Stem-Loop Driven Prion Protein mRNA Translation in H4 Neuroglioblastoma Cells. [Related pubchem assays: 1829 (Project Summary), 1814 (Primary HTS)]; format: functional; conditions: Homo sapiens
cells [13] = format: functional, cell-based
cells [14] = format: functional, cell-based; remark: listed apart in the source
Protein RecA = biological target: T6, Protein RecA (Mycobacterium tuberculosis, UniProt P9WHJ3); assay: Fluorescence Cell-Free Homogeneous Dose Retest to Identify Inhibitors of RecA-Intein Splicing Activity. [Related pubchem assays (depositor defined):AID2097, AID2223, AID489010, AID492950]; format: functional
T6 sequence (P9WHJ3 whole entry): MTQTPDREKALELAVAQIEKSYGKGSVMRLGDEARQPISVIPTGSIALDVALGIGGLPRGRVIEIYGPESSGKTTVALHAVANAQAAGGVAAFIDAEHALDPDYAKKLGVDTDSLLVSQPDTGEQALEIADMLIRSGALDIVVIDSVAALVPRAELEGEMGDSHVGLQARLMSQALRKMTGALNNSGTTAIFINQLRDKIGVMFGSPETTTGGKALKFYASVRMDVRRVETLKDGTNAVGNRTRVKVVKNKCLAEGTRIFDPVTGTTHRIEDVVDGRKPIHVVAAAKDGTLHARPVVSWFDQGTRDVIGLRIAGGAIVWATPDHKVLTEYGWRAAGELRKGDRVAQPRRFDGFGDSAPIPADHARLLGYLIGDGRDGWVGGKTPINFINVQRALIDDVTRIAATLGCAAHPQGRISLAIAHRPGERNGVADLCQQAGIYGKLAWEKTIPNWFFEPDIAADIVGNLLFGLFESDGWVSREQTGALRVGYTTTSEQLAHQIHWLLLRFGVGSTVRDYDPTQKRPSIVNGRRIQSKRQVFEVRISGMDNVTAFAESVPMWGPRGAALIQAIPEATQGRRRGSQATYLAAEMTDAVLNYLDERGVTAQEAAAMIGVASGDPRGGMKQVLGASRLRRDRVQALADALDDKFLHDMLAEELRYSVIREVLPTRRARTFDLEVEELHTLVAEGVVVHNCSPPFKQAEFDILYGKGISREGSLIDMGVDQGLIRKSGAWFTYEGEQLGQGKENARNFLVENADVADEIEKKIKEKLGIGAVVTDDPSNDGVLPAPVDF

[15] = biological target: T7, Replicative DNA helicase DnaB (Mycobacterium tuberculosis, UniProt P9WMR3); assay: DnaB intein splicing inhibitors, dose response, biochemical, cell-free fluorescence (AID 449749); format: functional
T7 sequence (P9WMR3 whole entry): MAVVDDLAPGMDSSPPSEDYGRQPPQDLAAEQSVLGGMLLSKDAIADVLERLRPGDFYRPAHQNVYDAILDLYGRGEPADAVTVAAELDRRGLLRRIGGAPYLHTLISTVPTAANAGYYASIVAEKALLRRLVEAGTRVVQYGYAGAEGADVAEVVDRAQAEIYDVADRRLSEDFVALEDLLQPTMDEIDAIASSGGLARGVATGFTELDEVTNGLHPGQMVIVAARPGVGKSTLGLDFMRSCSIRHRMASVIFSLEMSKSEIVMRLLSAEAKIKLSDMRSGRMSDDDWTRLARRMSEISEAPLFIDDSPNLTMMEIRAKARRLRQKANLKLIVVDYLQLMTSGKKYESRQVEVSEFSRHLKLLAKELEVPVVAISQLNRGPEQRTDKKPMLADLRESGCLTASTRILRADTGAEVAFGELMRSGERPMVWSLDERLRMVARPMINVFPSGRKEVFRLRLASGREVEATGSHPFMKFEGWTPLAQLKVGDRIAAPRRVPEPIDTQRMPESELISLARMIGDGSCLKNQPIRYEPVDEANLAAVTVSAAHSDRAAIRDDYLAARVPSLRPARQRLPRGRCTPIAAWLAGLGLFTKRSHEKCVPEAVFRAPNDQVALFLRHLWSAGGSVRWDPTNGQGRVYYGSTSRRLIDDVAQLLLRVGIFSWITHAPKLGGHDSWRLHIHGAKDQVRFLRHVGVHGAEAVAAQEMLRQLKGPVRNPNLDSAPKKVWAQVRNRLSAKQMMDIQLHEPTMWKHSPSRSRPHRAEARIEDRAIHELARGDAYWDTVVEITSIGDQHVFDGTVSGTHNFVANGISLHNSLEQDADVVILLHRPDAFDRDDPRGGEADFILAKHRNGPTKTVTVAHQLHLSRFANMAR

In the case of `CCN(CC)CCCNC(=O)c1cc2c(O)nc3ccc(C)cc3c2s1`, the AC50 [1] is reported as 21.5 µM (active) and the AC50 [2] is reported as 62.4 µM (active).

With `COc1ccc(-c2cnc3c(NC(C)=O)cc(-c4cccc(C(=O)NCCN(C)C)c4)cn23)cc1OC` the AC50 [1] was 2.33 µM (active) and the AC50 [2] was 15.2 µM (active).

For `O=C(CN(C(=O)CSc1nnc(COc2ccccc2)o1)c1ccc(F)cc1)NC1CCCCC1`, the IC50 [3] was 3.19 µM (not active).

For `O=C(/C=C/c1ccc([N+](=O)[O-])cc1)NCCSc1ccccc1`, the IC50 [3] was 15.9 µM (not active).

For `CSCc1cc(N(C)c2ccccc2)nc(-c2ccccn2)n1`, the EC50 [4] was 6.57 µM (active), the EC50 (Streptococcus) was 25 µM (active) and the EC50 [5] was > 60 µM (not active). The EC50 [6] was 1.89 µM (active), the AC50 [7] was 108 µM (active) and the EC50 (Streptokinase A) was > 150 µM (not active).

With `COc1ccc(Nc2nc3nc(O)cc(O)c3s2)cc1` the IC50 [8] was > 50 µM (not active).

For `CCCCOC(=O)c1ccc(S(N)(=O)=O)o1`, the IC50 [9] was > 100 µM (not active).

With `COC(=O)c1cn(NC(=O)c2cc(OC)c(OC)c(OC)c2)c(=O)c2ccccc12` the EC50 [10] was 41.4 µM (active).

In the case of `c1ccc(CCN2CN=C(Nc3nc4ccccc4o3)NC2)cc1`, the EC50 [11] is reported as 14.3 µM (active), the EC50 [12] is reported as 8.35 µM (active) and the EC50 (H4) is reported as 17.3 µM (active). For the same compound, the EC50 (cells [13]) was > 29.9 µM (inactive) and the IC50 (cells [14]) was > 29.9 µM (inactive).

With `Cc1ccsc1-c1cc2nc(NCCCN(C)C)n(C)c(=O)c2s1` the AC50 [1] was 9.79 µM (active) and the AC50 [2] was 47 µM (active).

For `Cn1c(NCCN2CCCC2)nc2cc(-c3ccccc3)sc2c1=O`, the AC50 [1] was 16.2 µM (active) and the AC50 [2] was 39.3 µM (active).

For `Nc1ccc2ncccc2c1`, the EC50 (Protein RecA) was 5.95 µM (active), the AC50 [15] was 6.42 µM (active) and the IC50 [8] was > 50 µM (not active).

With `Oc1ncc(NCCc2ccccc2)c(O)n1` the EC50 (cells [13]) was > 29.9 µM (inactive) and the IC50 (cells [14]) was > 29.9 µM (inactive).

With `Cc1sc(NC(=S)NC(=O)c2cccs2)nc1-c1ccc(C(C)C)cc1` the IC50 [3] was 26 µM (not active).

With `C/C(CC(=O)N1CCN(C=O)CC1)=N\NC(=O)c1cc2ccccc2cc1O` the IC50 [8] was 42.5 µM (active).
